Measured values: patent US7759331B2, “Pyridine-containing macroheterococylic compounds as kinase inhibitors” (Janssen Pharmaceutica NV, priority 2006, dated 2010)

Experiments:
Test in all cases: Protein kinase selectivity panel
Assay type in all cases: biochemical
Details in all cases: 1.0 μM compound, 10 μM ATP
CDK3/cyclinE(h) = CDK3/cyclinE(h) (Homo sapiens, UniProt Q00526)
Method in brief: (§1)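 Single-point screen: compound 1.0 μM; ATP 10 μM; peptide/protein substrate matched to each kinase; reaction linear in time.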

Flt3(h) = target: T1, Flt3(h) (Homo sapiens, UniProt P36888)
T1 sequence (P36888 27-993): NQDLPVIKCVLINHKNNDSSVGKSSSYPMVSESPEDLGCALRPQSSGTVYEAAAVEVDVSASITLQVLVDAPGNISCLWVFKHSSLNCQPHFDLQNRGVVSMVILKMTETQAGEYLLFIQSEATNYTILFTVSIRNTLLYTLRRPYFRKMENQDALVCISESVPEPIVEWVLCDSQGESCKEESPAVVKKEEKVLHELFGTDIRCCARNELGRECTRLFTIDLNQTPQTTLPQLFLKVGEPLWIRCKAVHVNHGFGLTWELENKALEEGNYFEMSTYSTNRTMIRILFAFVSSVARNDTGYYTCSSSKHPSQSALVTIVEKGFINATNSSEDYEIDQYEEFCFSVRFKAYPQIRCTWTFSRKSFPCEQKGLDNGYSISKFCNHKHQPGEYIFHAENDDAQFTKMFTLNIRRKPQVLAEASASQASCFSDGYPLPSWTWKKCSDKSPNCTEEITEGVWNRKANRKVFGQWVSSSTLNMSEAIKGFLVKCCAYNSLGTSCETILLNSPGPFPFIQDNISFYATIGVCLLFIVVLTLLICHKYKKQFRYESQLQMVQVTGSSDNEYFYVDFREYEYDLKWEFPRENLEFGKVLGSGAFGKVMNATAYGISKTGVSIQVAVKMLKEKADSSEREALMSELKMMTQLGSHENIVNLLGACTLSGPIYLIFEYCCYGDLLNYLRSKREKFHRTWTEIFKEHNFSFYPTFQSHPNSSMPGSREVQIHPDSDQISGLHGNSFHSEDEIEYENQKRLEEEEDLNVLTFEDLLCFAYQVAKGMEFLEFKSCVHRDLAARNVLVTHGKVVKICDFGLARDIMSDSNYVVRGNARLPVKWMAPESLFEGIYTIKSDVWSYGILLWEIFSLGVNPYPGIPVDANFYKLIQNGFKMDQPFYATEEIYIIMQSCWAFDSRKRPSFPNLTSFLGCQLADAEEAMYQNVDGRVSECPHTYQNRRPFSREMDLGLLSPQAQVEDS
Method in brief: as §1

Lyn(m) = Lyn(m) (Mus musculus, UniProt P25911)
Method in brief: as §1

MAPKAP-K2(h) = MAPKAP-K2(h) (Homo sapiens, UniProt P49137)
Method in brief: as §1

MKK6(h) = target: T2, MKK6(h) (Homo sapiens, UniProt P52564)
T2 sequence (P52564 1-334): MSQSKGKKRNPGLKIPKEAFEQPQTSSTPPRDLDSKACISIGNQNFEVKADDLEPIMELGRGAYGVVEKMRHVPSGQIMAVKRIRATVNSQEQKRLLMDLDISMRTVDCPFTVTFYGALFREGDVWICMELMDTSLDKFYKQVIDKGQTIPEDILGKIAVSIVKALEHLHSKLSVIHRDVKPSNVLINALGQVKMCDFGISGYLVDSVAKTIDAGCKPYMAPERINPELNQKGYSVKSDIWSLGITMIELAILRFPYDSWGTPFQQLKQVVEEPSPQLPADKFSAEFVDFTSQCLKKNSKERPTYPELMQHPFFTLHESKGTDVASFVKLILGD
Method in brief: as §1

PAR-1Bα(h) = PAR-1Bα(h) (Homo sapiens, UniProt Q7KZI7)
Method in brief: as §1

PDGFRα(h) = PDGFRα(h) (Homo sapiens, UniProt P16234)
Method in brief: as §1

PKCι(h) = target: T3, PKCι(h) (Homo sapiens, UniProt P41743)
T3 sequence (P41743 1-596): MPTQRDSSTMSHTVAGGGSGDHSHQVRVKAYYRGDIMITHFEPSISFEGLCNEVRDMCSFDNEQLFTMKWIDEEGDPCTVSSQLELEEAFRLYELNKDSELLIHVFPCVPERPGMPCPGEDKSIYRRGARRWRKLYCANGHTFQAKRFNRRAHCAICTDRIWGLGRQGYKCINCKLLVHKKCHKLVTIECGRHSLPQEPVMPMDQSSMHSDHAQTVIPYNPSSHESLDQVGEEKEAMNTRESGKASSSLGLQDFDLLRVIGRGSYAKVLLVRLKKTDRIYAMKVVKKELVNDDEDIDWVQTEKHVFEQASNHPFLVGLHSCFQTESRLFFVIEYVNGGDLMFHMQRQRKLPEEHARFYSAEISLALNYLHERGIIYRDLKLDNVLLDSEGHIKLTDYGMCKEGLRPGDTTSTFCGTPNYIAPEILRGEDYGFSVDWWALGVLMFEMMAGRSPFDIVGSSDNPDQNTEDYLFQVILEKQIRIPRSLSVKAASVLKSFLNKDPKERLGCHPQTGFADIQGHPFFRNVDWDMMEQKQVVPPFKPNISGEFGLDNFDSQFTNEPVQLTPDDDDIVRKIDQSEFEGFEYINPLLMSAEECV
Method in brief: as §1

Ros(h) = Ros(h) (Homo sapiens, UniProt P08922)
Method in brief: as §1

Rsk3(h) = Rsk3(h) (Homo sapiens, UniProt Q15349)
Method in brief: as §1

SGK(h) = target: T4, SGK(h) (Homo sapiens, UniProt O00141, S422D)
T4 sequence (O00141 60-431 S422D limits assumed): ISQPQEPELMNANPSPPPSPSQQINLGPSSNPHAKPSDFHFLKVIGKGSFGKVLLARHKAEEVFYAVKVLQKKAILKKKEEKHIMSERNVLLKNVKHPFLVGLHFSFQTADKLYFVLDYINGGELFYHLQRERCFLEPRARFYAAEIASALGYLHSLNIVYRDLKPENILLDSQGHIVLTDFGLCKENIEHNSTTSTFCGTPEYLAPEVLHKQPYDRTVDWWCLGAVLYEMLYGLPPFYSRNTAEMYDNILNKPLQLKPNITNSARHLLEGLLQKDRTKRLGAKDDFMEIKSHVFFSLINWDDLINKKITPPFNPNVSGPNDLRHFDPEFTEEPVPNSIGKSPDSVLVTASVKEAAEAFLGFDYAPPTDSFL
Method in brief: as §1

PDGFRα(h), sequence (P16234 24-1089): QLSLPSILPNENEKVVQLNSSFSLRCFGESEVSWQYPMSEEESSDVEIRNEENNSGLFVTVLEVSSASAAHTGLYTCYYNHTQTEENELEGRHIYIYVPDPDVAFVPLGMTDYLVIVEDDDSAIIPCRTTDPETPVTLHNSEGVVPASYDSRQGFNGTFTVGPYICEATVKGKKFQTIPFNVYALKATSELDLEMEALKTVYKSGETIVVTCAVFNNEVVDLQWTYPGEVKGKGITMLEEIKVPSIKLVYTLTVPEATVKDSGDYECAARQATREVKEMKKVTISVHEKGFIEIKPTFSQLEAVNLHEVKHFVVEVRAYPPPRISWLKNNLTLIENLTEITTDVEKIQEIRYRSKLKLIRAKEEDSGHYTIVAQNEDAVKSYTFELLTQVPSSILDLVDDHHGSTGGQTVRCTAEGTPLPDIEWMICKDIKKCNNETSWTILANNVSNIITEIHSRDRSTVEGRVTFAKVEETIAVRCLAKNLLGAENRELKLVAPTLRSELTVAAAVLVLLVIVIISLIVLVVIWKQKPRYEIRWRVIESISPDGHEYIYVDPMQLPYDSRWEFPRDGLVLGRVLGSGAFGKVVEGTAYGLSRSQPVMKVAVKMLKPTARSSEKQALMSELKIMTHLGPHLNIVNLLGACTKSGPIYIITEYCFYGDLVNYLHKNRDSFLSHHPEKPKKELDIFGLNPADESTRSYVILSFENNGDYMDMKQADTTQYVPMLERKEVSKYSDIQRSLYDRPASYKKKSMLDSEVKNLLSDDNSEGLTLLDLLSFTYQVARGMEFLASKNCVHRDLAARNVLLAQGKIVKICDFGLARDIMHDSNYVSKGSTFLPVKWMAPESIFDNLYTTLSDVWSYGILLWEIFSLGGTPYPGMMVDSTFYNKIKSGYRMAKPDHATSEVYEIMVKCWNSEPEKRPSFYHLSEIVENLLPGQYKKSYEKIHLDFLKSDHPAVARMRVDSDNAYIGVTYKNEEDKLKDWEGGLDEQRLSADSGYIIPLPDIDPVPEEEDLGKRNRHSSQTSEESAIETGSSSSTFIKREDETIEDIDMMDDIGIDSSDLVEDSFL
CDK3/cyclinE(h), sequence (Q00526 whole entry): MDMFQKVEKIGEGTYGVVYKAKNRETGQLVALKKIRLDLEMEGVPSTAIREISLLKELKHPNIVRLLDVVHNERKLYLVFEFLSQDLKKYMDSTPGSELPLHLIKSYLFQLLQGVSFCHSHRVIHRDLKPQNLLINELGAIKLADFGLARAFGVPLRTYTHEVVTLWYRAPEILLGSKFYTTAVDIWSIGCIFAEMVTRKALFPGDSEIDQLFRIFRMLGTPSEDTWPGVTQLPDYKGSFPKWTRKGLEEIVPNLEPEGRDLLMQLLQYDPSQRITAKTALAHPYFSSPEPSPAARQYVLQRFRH
CDK3/cyclinE(h), sequence (P24864 whole entry partner): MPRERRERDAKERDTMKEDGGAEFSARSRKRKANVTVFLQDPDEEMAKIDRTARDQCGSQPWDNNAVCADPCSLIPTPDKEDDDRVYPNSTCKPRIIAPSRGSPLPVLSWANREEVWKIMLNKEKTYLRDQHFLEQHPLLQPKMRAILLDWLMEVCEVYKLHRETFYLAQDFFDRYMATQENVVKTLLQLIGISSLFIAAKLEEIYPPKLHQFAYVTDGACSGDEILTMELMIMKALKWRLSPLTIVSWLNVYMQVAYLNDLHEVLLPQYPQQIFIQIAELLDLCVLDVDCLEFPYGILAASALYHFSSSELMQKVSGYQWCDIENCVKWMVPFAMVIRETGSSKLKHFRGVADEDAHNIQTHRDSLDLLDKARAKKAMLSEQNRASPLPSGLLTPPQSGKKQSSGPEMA
PAR-1Bα(h), sequence (Q7KZI7 1-725 isoform Q7KZI7-4): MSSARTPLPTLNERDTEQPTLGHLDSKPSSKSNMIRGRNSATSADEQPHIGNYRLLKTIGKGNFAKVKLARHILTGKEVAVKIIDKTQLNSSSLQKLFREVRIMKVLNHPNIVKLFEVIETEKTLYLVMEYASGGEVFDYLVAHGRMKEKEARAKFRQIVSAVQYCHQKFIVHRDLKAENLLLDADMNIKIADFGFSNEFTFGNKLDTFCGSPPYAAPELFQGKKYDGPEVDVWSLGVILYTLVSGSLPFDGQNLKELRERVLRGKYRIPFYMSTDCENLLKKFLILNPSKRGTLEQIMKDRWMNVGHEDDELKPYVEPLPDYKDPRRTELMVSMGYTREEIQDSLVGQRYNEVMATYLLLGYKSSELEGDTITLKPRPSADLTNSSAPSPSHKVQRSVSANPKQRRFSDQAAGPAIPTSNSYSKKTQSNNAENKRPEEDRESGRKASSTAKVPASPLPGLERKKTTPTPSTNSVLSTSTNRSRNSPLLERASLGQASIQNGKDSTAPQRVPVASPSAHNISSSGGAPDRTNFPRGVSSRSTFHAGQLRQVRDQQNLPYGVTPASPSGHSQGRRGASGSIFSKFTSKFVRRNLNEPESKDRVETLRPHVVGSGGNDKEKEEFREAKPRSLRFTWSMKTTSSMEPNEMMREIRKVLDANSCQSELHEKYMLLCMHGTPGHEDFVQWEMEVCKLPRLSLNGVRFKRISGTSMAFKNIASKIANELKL
MAPKAP-K2(h), sequence (P49137 whole entry): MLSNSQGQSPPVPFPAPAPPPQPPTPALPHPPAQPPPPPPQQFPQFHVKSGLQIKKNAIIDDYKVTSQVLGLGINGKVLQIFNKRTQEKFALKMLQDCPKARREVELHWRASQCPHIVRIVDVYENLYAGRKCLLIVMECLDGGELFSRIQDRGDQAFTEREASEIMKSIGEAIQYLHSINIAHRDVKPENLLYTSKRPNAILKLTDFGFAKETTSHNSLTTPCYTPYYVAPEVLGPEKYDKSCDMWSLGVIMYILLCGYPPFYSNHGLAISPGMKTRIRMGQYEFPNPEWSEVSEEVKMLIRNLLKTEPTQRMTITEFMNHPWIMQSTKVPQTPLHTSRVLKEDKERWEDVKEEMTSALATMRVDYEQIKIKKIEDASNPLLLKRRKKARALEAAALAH
Lyn(m), sequence (P25911 whole entry): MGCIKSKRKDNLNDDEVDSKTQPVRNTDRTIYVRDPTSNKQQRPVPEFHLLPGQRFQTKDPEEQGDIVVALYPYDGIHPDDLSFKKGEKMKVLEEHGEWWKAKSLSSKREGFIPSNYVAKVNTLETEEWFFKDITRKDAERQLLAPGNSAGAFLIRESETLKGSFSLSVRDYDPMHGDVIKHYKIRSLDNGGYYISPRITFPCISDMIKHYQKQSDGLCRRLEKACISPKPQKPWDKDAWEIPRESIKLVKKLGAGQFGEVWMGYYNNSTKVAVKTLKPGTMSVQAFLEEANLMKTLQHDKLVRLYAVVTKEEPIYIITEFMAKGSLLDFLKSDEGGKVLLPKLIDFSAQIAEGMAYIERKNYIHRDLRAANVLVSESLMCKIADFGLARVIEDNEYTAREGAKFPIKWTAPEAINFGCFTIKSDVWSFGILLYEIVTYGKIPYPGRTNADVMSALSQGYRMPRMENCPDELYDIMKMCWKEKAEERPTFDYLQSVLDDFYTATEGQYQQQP
Rsk3(h), sequence (Q15349 whole entry): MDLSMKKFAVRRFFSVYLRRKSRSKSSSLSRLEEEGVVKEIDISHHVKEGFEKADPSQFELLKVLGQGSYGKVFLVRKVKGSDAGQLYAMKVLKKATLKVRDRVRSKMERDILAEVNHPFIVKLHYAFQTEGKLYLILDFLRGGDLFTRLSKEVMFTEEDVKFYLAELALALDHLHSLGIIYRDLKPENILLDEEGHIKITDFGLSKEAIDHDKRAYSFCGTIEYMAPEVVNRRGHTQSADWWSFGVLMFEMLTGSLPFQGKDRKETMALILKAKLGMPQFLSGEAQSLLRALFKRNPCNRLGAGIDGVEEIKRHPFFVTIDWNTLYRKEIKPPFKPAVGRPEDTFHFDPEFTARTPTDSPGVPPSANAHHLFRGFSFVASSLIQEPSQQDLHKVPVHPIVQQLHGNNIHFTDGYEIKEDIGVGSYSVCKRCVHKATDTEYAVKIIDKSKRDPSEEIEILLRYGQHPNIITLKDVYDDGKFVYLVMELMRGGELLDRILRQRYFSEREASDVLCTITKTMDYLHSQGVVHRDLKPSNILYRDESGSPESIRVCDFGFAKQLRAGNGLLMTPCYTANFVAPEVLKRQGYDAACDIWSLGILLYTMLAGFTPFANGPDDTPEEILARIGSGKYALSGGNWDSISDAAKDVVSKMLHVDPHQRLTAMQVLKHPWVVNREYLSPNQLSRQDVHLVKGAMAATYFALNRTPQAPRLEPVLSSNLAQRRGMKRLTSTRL

SMILES | Activity at Protein Kinase Assays (% of control), CDK3/cyclinE(h) (CDK3/cyclinE(h)) | Activity at Protein Kinase Assays (% of control), Flt3(h) (Flt3(h)) | Activity at Protein Kinase Assays (% of control), Lyn(m) (Lyn(m)) | Activity at Protein Kinase Assays (% of control), MAPKAP-K2(h) (MAPKAP-K2(h)) | Activity at Protein Kinase Assays (% of control), MKK6(h) (MKK6(h)) | Activity at Protein Kinase Assays (% of control), PAR-1Bα(h) (PAR-1Bα(h)) | Activity at Protein Kinase Assays (% of control), PDGFRα(h) (PDGFRα(h)) | Activity at Protein Kinase Assays (% of control), PKCι(h) (PKCι(h)) | Activity at Protein Kinase Assays (% of control), Ros(h) (Ros(h)) | Activity at Protein Kinase Assays (% of control), Rsk3(h) (Rsk3(h)) | Activity at Protein Kinase Assays (% of control), SGK(h) (SGK(h))
CN(C)c1nc2ccc1CCCCn1cc(c3ccccc31)C1=C(C(=O)NC1=O)c1cn(c3ccccc13)CCC2 [Cpd 1, 31-(dimethylamino)-5,15,25,32-tetraazaheptacyclo[28.2.2.1^5,12.1^18,25.0^6,11.0^13,17.0^19,24]hexatriaconta-1(32),6,8,10,12(36),13(17),18(35),19,21,23,30,33-dodecaene-14,16-dione] | 59 % of control | 86 % of control | 90 % of control | 98 % of control | 102 % of control | 94 % of control | 107 % of control | 104 % of control | 79 % of control | 33 % of control | 93 % of control
CN(C)c1cc2cc(n1)CCCn1cc(c3ccccc31)C1=C(C(=O)NC1=O)c1cn(c3ccccc13)CCC2 [Cpd 2, 20-(dimethylamino)-4,14,19,26-tetraazaheptacyclo[24.6.1.1^7,14.1^18,22.0^2,6.0^8,13.0^27,32]pentatriaconta-1(33),2(6),7(35),8,10,12,18(34),19,21,27,29,31-dodecaene-3,5-dione] | 89 % of control | 71 % of control | 102 % of control | 101 % of control | 86 % of control | 100 % of control | 119 % of control | 117 % of control | 108 % of control | 5 % of control | 105 % of control
O=C1NC(=O)C2=C1c1cn(c3ccccc13)CCCc1cc(nc(N3CCCC3)c1)CCCn1cc2c2ccccc21 [Cpd 6, 20-pyrrolidin-1-yl-4,14,19,26-tetraazaheptacyclo[24.6.1.1^7,14.1^18,22.0^2,6.0^8,13.0^27,32]pentatriaconta-1(33),2(6),7(35),8,10,12,18(34),19,21,27,29,31-dodecaene-3,5-dione] | 86 % of control | 77 % of control | 99 % of control | 108 % of control | 91 % of control | 96 % of control | 126 % of control | 121 % of control | 117 % of control | 5 % of control | 109 % of control
O=C1NC(=O)C2=C1c1cn(c3ccccc13)CCCc1ccc(c(N3CCCC3)n1)CCCn1cc2c2ccccc21 [Cpd 7, 31-pyrrolidin-1-yl-5,15,25,30-tetraazaheptacyclo[27.2.2.1^5,12.1^18,25.0^6,11.0^13,17.0^19,24]pentatriaconta-1(31),6,8,10,12(35),13(17),18(34),19,21,23,29,32-dodecaene-14,16-dione] | 106 % of control | 85 % of control | 104 % of control | 95 % of control | 85 % of control | 101 % of control | 113 % of control | 90 % of control | 105 % of control | 25 % of control | 93 % of control
